Here are results for 64 compounds from patent publication US8952026B2, “PRMT1 inhibitors and uses thereof” (Epizyme, Inc., priority 2013, dated 2015).

Each structure is given as a SMILES string. Some results are limits rather than exact numbers.

The target of this assay is T1, full-length human GST-tagged PRMT1 (Homo sapiens, UniProt Q99873).
T1 construct: GST-tagged PRMT1; made in house; host or cells: High Five insect cells (baculovirus, pFastBacI)
T1 sequence (Q99873 with tags, fused parts or gaps): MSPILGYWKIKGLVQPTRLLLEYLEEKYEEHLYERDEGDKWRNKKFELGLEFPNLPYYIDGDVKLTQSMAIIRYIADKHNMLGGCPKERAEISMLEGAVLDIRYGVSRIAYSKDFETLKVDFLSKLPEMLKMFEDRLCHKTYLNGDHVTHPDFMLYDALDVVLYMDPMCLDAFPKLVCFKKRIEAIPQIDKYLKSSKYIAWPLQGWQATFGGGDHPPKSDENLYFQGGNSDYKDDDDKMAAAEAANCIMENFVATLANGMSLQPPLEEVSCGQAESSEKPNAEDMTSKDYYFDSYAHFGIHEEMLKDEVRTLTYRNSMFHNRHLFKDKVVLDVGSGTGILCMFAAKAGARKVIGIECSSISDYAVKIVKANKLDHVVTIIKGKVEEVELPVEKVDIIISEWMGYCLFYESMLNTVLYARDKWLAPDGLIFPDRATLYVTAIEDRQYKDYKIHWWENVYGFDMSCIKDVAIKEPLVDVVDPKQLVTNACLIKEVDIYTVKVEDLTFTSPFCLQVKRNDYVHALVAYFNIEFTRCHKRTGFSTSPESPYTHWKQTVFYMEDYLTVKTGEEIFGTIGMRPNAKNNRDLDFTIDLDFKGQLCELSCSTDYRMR
The assay can be described thus: PRMT1 Biochemical Assay (3H-SAM Flashplate, histone H4 peptide substrate). The source says: General Materials. S-adenosylmethionine (SAM), S-adenosylhomocysteine (SAH), bicine, Tween20, dimethylsulfoxide (DMSO), bovine skin gelatin (BSG), and Tris(2-carboxyethyl)phosphine hydrochloride solution (TCEP) were purchased from Sigma-Aldrich at the highest level of purity possible. ^3H-SAM was purchase from American Radiolabeled Chemicals with a specific activity of 80 Ci/mmol. 384-well streptavidin Flashplates were purchased from PerkinElmer.
Protein Expression. Recombinant baculovirus were generated according to Bac-to-Bac kit instructions (Life Technologies). Protein over-expression was accomplished by infecting exponentially growing High Five insect cell culture at 1.5×10^6cell/ml with 1:100 ratio of virus. Infections were carried out at 27° C. for 48 hours, harvested by centrifugation, and stored at −80° C. for purification.
Protein Purification. […] GST-tagged PRMT1 was eluted with 50 mM Tris, 2 mM glutathione, pH 7.8, dialysed in buffer A and concentrated to 1 mg/mL.
General Procedure for PRMT1 Enzyme Assays on Peptide Substrates. The assays were all performed in a buffer consisting of 20 mM Bicine (pH=7.6), 1 mM TCEP, 0.005% BSG, and 0.002% Tween 20, prepared on the day of use. […] DMSO (1 ul) was added to Columns 11, 12, 23, 24, rows A-H for the maximum signal control and 1 ul of SAH, a known product and inhibitor of PRMT1, was added to columns 11, 12, 23, 24, rows I-P for the minimum signal control. A cocktail (40 ul) containing the PRMT1 enzyme was added by Multidrop Combi (Thermo-Fisher). The compounds were allowed to incubate with PRMT1 for 30 min at room temperature, then a cocktail (10 ul) containing SAM and peptide was added to initiate the reaction (final volume=51 ul). […] The assays were stopped by the addition of non-radiolabeled SAM (10 ul) to a final concentration of 300 uM, which dilutes the ^3H-SAM to a level where its incorporation into the peptide substrate is no longer detectable. 50 ul of the reaction in the 384-well polypropylene plate was then transferred to a 384-well Flashplate and the biotinylated peptides were allowed to bind to the streptavidin surface for at least 1 hour before being washed once with 0.1% Tween20 in a Biotek ELx405 plate washer. The plates were then read in a PerkinElmer TopCount plate reader to measure the quantity of ^3H-labeled peptide bound to the Flashplate surface, measured as disintegrations per minute (dpm) or alternatively, referred to as counts per minute (cpm).
Where dpm=disintegrations per minute, cmpd=signal in assay well, and min and max are the respective minimum and maximum signal controls.
Where top and bottom are the normally allowed to float, but may be fixed at 100 or 0 respectively in a 3-parameter fit. The Hill Coefficient normally allowed to float but may also be fixed at 1 in a 3-parameter fit. Y is the % inhibition and X is the compound concentration.
Compound `CNCCN(C)Cc1c[nH]nc1-c1cccc(C(F)(F)F)c1` [Compound 1] registered an IC50 of 101 to 1000 nM.
Regarding `CN(CCN)Cc1c[nH]nc1-c1cc(C(F)(F)F)cc(C(F)(F)F)c1` [Compound 2], the IC50 is 101 to 1000 nM.
Turning to `CN(CCN)Cc1c[nH]nc1-c1ccc(Cl)c(C(F)(F)F)c1` [Compound 3], the IC50 was less than 100 nM.
The compound `CN(CCN)Cc1c[nH]nc1-c1ccc(F)c(C(F)(F)F)c1` [Compound 4] had an IC50 of less than 100 nM.
As for `CC(C)Oc1ccc(-c2n[nH]cc2CN(C)CCN)cc1C(F)(F)F` [Compound 5], the IC50 was less than 100 nM.
The figure for `CC(C)Oc1cc(-c2n[nH]cc2CN(C)CCN)cc(C(F)(F)F)c1` [Compound 6] is less than 100 nM; for `CN(CCN)Cc1n[nH]cc1-c1cc(C(F)(F)F)cc(C(F)(F)F)c1` [Compound 7] it is 1010 to 3000 nM; for `CC(C)Oc1ccc(-c2c[nH]nc2CN(C)CCN)cc1C(F)(F)F` [Compound 8] it is less than 100 nM.
As to `CNCCN(C)Cc1c[nH]nc1-c1ccc(OCCC(C)C)c(C(F)(F)F)c1` [Compound 9], the IC50 is less than 100 nM.
The compound `CNCCN(C)Cc1c[nH]nc1-c1ccc(OCC(C)C)c(C(F)(F)F)c1` [Compound 10] yielded an IC50 of less than 100 nM.
Turning to `CCCOc1ccc(-c2n[nH]cc2CN(C)CCNC)cc1C(F)(F)F` [Compound 11], the IC50 is less than 100 nM.
As for `CNCCN(C)Cc1c[nH]nc1-c1cc(OCCC(C)C)cc(C(F)(F)F)c1` [Compound 12], the IC50 was less than 100 nM.
`CNCCN(C)Cc1c[nH]nc1-c1ccc(OCCCOC)c(C(F)(F)F)c1` [Compound 13] yielded an IC50 of less than 100 nM.
For the compound `CNCCN(C)Cc1c[nH]nc1-c1ccc(OCCOC)c(C(F)(F)F)c1` [Compound 14], the IC50 is less than 100 nM.
The compound `CNCCN(C)Cc1c[nH]nc1-c1cc(OCC(C)C)cc(C(F)(F)F)c1` [Compound 15] returned an IC50 of less than 100 nM.
Compound `CNCCN(C)Cc1c[nH]nc1-c1cc(OCCOC)cc(C(F)(F)F)c1` [Compound 16] returned an IC50 of less than 100 nM.
As to `CNCCN(C)Cc1n[nH]cc1-c1ccc(OCCC(C)C)c(C(F)(F)F)c1` [Compound 17], the IC50 is less than 100 nM.
In turn, `CNCCN(C)Cc1n[nH]cc1-c1ccc(OCC(C)C)c(C(F)(F)F)c1` [Compound 18] registered an IC50 of less than 100 nM.
Regarding `CCCOc1cc(-c2n[nH]cc2CN(C)CCNC)cc(C(F)(F)F)c1` [Compound 19], the IC50 is less than 100 nM.
For `CNCCN(C)Cc1n[nH]cc1-c1ccc(OCCCOC)c(C(F)(F)F)c1` [Compound 20] the value was less than 100 nM; for `CNCCN(C)Cc1n[nH]cc1-c1ccc(OCCOC)c(C(F)(F)F)c1` [Compound 21], less than 100 nM; for `CNCCN(C)Cc1n[nH]cc1-c1cc(OCCC(C)C)cc(C(F)(F)F)c1` [Compound 22], less than 100 nM.
`CN(CCN)Cc1c[nH]nc1-c1ccc(Oc2ccccc2)c(C(F)(F)F)c1` [Compound 23]: the IC50 was less than 100 nM.
In turn, `CNCCN(C)Cc1c[nH]nc1-c1cc(OCCCOC)cc(C(F)(F)F)c1` [Compound 24] came in with an IC50 of less than 100 nM.
Compound `CNCCN(C)Cc1c[nH]nc1-c1cc(Cl)c(OC(C)C)c(C(F)(F)F)c1` [Compound 25] yielded an IC50 of less than 100 nM.
On to `CN(CCN)Cc1n[nH]cc1-c1ccc(Oc2ccccc2)c(C(F)(F)F)c1` [Compound 26], for which the IC50 was less than 100 nM.
On to `CNCCN(C)Cc1n[nH]cc1-c1cc(OCCCOC)cc(C(F)(F)F)c1` [Compound 27], for which the IC50 lay in the range of 101 to 1000 nM.
Compound `CCCOc1ccc(-c2c[nH]nc2CN(C)CCNC)cc1C(F)(F)F` [Compound 28] came in with an IC50 of less than 100 nM.
As for `CNCCN(C)Cc1n[nH]cc1-c1cc(OCC(C)C)cc(C(F)(F)F)c1` [Compound 29], the half-inhibitory concentration (IC50) is less than 100 nM.
For `CNCCN(C)Cc1n[nH]cc1-c1cc(OCCOC)cc(C(F)(F)F)c1` [Compound 30], the IC50 was 101 to 1000 nM.
For `CCCOc1cc(-c2c[nH]nc2CN(C)CCNC)cc(C(F)(F)F)c1` [Compound 31] the value was 101 to 1000 nM; for `CNCCN(C)Cc1n[nH]cc1-c1cc(C(O)C(C)C)cc(C(F)(F)F)c1` (stereo not shown) [Compound 32], 1010 to 3000 nM; for `CNCCN(C)Cc1n[nH]cc1-c1cc(Cl)c(OC(C)C)c(C(F)(F)F)c1` [Compound 33], less than 100 nM.
`CNCCN(C)Cc1c[nH]nc1-c1ccc(CC(C)C)c(C(F)(F)F)c1` [Compound 34] displayed an IC50 of less than 100 nM.
For the compound `CNCCN(C)Cc1c[nH]nc1-c1cc(Cl)c(OCC2CCC2)c(C(F)(F)F)c1` [Compound 35], the IC50 was less than 100 nM.
In turn, `CNCCN(C)Cc1c[nH]nc1-c1cc(Oc2ccccc2)cc(C(F)(F)F)c1` [Compound 36] showed an IC50 of less than 100 nM.
Regarding `CNCCN(C)Cc1c[nH]nc1-c1cc(OCc2ccccc2)cc(C(F)(F)F)c1` [Compound 37], the IC50 is less than 100 nM.
As for `CNCCN(C)Cc1c[nH]nc1-c1cc(Oc2ccncc2)cc(C(F)(F)F)c1` [Compound 38], the IC50 was in the range of 101 to 1000 nM.
For the compound `CNCCN(C)Cc1c[nH]nc1-c1cc(OC2CCCCC2)cc(C(F)(F)F)c1` [Compound 39], the IC50 was less than 100 nM.
For `CC(C)CCOc1cc(-c2n[nH]cc2CN(C)CCN)cc(C(F)(F)F)c1Cl` [Compound 40], the IC50 was in the range of 101 to 1000 nM.
For `CNCCN(C)Cc1c[nH]nc1-c1cc(Cl)c(OCC2CC2)c(C(F)(F)F)c1` [Compound 41] the value was less than 100 nM; for `CNCCN(C)Cc1c[nH]nc1-c1cc(OCC2CCC2)cc(C(F)(F)F)c1` [Compound 44], less than 100 nM; for `CNCCN(C)Cc1c[nH]nc1-c1cc(OCC2CCCC2)cc(C(F)(F)F)c1` [Compound 45], less than 100 nM.
As to `CNCCN(C)Cc1c[nH]nc1-c1cc(OCC2CCOCC2)cc(C(F)(F)F)c1` [Compound 46], the IC50 was less than 100 nM.
`CCC(CC)Oc1cc(-c2n[nH]cc2CN(C)CCNC)cc(C(F)(F)F)c1` [Compound 47] displayed an IC50 of less than 100 nM.
`CNCCN(C)Cc1c[nH]nc1-c1cc(OCCCC(F)(F)F)cc(C(F)(F)F)c1` [Compound 48] came in with an IC50 of less than 100 nM.
For the compound `CNCCN(C)Cc1c[nH]nc1-c1cc(OCCCC(C)=O)cc(C(F)(F)F)c1` [Compound 49], the IC50 is less than 100 nM.
`CNCCN(C)Cc1c[nH]nc1-c1cc(OCCc2ccccc2OC)cc(C(F)(F)F)c1` [Compound 50] displayed an IC50 of less than 100 nM.
Take `CNCCN(C)Cc1c[nH]nc1-c1cc(Oc2cccnc2)cc(C(F)(F)F)c1` [Compound 51]: the IC50 is less than 100 nM.
As to `CNCCN(C)Cc1c[nH]nc1-c1cc(Oc2ccccn2)cc(C(F)(F)F)c1` [Compound 52], the IC50 was less than 100 nM.
For the compound `CNCCN(C)Cc1c[nH]nc1-c1cc(Oc2cncnc2)cc(C(F)(F)F)c1` [Compound 53], the IC50 was in the range of 101 to 1000 nM.
In turn, `CNCCN(C)Cc1c[nH]nc1-c1cc(OCCC(C)C)c(Cl)c(C(F)(F)F)c1` [Compound 54] gave an IC50 of 101 to 1000 nM.
`CNCCN(C)Cc1c[nH]nc1-c1cc(OCCOC)c(Cl)c(C(F)(F)F)c1` [Compound 55] yielded an IC50 of 101 to 1000 nM.
For `COCCOc1cc(-c2n[nH]cc2CN(C)CCN)cc(C(F)(F)F)c1Cl` [Compound 56], the IC50 lay in the range of 101 to 1000 nM.
For `CNCCN(C)Cc1c[nH]nc1-c1cc(OCCCOC)c(Cl)c(C(F)(F)F)c1` [Compound 57], the half-maximal inhibitory concentration (IC50) is less than 100 nM.
In turn, `CNCCN(C)Cc1c[nH]nc1-c1cc(C)c(OCC2CCC2)c(C(F)(F)F)c1` [Compound 58] came in with an IC50 of less than 100 nM.
As for `CNCCN(C)Cc1c[nH]nc1-c1cc(C)c(OC2CCOCC2)c(C(F)(F)F)c1` [Compound 59], the IC50 was less than 100 nM.
As to `CNCCN(C)Cc1c[nH]nc1-c1cc(OCC(F)(F)F)cc(C(F)(F)F)c1` [Compound 60], the IC50 was less than 100 nM.
In turn, `CNCCN(C)Cc1c[nH]nc1-c1cc(OCCCC(=O)OC)cc(C(F)(F)F)c1` [Compound 61] came in with an IC50 of less than 100 nM.
In the case of `CNCCN(C)Cc1c[nH]nc1-c1cc(CCC(C)C)cc(C(F)(F)F)c1` [Compound 62], the IC50 was less than 100 nM.
The figure for `CC(C)CCc1cc(-c2n[nH]cc2CN(C)CCN)cc(C(F)(F)F)c1` [Compound 63] is less than 100 nM.
`CNCCN(C)Cc1c[nH]nc1-c1cc(OCCOC)c(F)c(C(F)(F)F)c1` [Compound 64] registered an IC50 of less than 100 nM.
`CNCCN(C)Cc1c[nH]nc1-c1cc(C)c(OCC2CCOCC2)c(C(F)(F)F)c1` [Compound 65] had an IC50 of less than 100 nM.
In turn, `CNCCN(C)Cc1c[nH]nc1-c1cc(C)c(OC2COC2)c(C(F)(F)F)c1` [Compound 66] returned an IC50 of less than 100 nM.
